Earlier results, collected in patent publication US9248196B2, “Rebamipide complexes and cocrystals” (NUFORMIX LIMITED, priority 2011, dated 2016).
Like-named read-outs stand apart in the source and are kept apart here.

- solubility (in ethanol): very slightly soluble
- solubility (in methanol): very slightly soluble
- solubility (in water): practically insoluble
Compound: O=C(NC(Cc1cc(=O)[nH]c2ccccc12)C(=O)O)c1ccc(Cl)cc1 (stereo not drawn) [Rebamipide, 2-(4-chlorobenzamido)-3-(2-oxo-1,2-dihydroquinolin-4-yl)propanoic acid]
